The supplement of paper PMC11061612

Columns and labels:
SK-N-AS (Neuroblastoma) = assay: combination Emax (second highest fraction inhibited in the dose matrix, 72 h); higher = more inhibition; extreme values may be limits of the assay
Summary of the method: (§1)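 Cell lines in DMEM/F12 or RPMI with 10% FBS were plated in 1536-well plates, held 24 hours at 37°C, 5% CO2, then given two-drug dose matrices for 72 hours (DMSO typically 0.2%). Viability was read by CellTiter-Glo 2.0 luminescence and scaled as inhibition from 0 (vehicle wells) to 1 (blank wells). Combination Emax is the second-highest inhibition in the matrix; Bliss excess is observed combination effect minus expected EA + EB − EA·EB, EA and EB being single-agent effects.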

[1] = system: DU-145 (Prostate Carcinoma); assay: as above
Summary of the method: as §1

[2] = system: HCC1937 (Breast Carcinoma); assay: as above
Summary of the method: as §1

[3] = system: NCI-H1355 (Lung Adenocarcinoma); assay: as above
Summary of the method: as §1

[4] = system: OE33 (Esophageal Adenocarcinoma); assay: as above
Summary of the method: as §1

[5] = system: Ca-Ski (Cervical Carcinoma); assay: as above
Summary of the method: as §1

[6] = system: NCI-H1838 (Lung Adenocarcinoma); assay: as above
Summary of the method: as §1

[7] = system: SW982 (Other Solid Carcinomas); assay: as above
Summary of the method: as §1

[8] = system: NCI-H1092 (Small Cell Lung Carcinoma); assay: as above
Summary of the method: as §1

[9] = system: NCI-H522 (Lung Adenocarcinoma); assay: as above
Summary of the method: as §1

[10] = system: G-401 (Other Solid Carcinomas); assay: as above
Summary of the method: as §1

[11] = system: EFO-21 (Ovarian Carcinoma); assay: as above
Summary of the method: as §1

[12] = system: HCC1500 (Breast Carcinoma); assay: as above
Summary of the method: as §1

[13] = system: SK-LU-1 (Lung Adenocarcinoma); assay: as above
Summary of the method: as §1

[14] = system: COLO-668 (Small Cell Lung Carcinoma); assay: as above
Summary of the method: as §1

[15] = system: EJM (Plasma Cell Myeloma); assay: as above
Summary of the method: as §1

[16] = system: SNU-387 (Hepatocellular Carcinoma); assay: as above
Summary of the method: as §1

[17] = system: NCI-H2122 (Lung Adenocarcinoma); assay: as above
Summary of the method: as §1

[18] = system: SW872 (Other Solid Carcinomas); assay: Bliss excess, mean over the matrix (fraction); higher = more synergy
Summary of the method: as §1

[19] = system: COLO-668 (Small Cell Lung Carcinoma); assay: as above
Summary of the method: as §1
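Wherever Bliss excess, mean over the matrix is given: after 72 h of two-drug dosing.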

| Compound | combination Emax (SK-N-AS (Neuroblastoma)) | combination Emax [1] | combination Emax [2] | combination Emax [3] | combination Emax [4] | combination Emax [5] | combination Emax [6] | combination Emax [7] | combination Emax [8] | combination Emax [9] | combination Emax [10] | combination Emax [11] | combination Emax [12] | combination Emax [13] | combination Emax [14] | combination Emax [15] | combination Emax [16] | combination Emax [17] | Bliss excess [18] | Bliss excess [19] |
| --- | --- | --- | --- | --- | --- | --- | --- | --- | --- | --- | --- | --- | --- | --- | --- | --- | --- | --- | --- | --- |
| Cc1c2c(nn1C)CSCc1cc(n(C)n1)CSc1cc(c3ccccc3c1)OCCCc1c(C(=O)O)n(C)c3c-2c(Cl)ccc13 [AZD5991] + CCN(CCO)CCCOc1ccc2c(Nc3cc(CC(=O)Nc4cccc(F)c4)[nH]n3)ncnc2c1 [AZD2811] (first compound max 1 µM, 7x7, partner max 1 µM) | 0.808 | 0.23 | 0.4 | 0.334 | 0.139 | 0.7 | 0.447 | 0.688 | 0.626 | 0.657 | 0.615 | 0.343 | 0.53 | 0.41 | 0.235 | 0.949 | 0.458 | 0.883 | 0.0237 | 0.0172 |
| NC1(C(=O)N[C@@H](CCO)c2ccc(Cl)cc2)CCN(c2ncnc3[nH]ccc23)CC1 [Capivasertib] + Cn1cnc2c(F)c(Nc3ccc(Br)cc3Cl)c(C(=O)NOCCO)cc21 [Selumetinib] (first compound max 10 µM, 7x7, partner max 10 µM) | 0.515 | 0.219 | 0.527 | 0.443 | 0.423 | 0.597 | 0.367 | 0.574 | 0.215 | 0.268 | 0.746 | 0.335 | 0.25 | 0.437 | 0.669 | 0.403 | 0.409 | 0.983 | 0.0256 | -0.0088 |
| NC1(C(=O)N[C@@H](CCO)c2ccc(Cl)cc2)CCN(c2ncnc3[nH]ccc23)CC1 [Capivasertib] + CC(C)n1c(=O)n(C)c2cnc3cc(F)c(-c4ccc(OCCCN5CCCCC5)nc4)cc3c21 [AZD1390] (first compound max 10 µM, 7x7, partner max 0.3 µM) | 0.157 | 0.249 | 0.426 | 0.273 | 0.185 | 0.433 | 0.206 | 0.435 | 0.2 | 0.192 | 0.545 | 0.217 | 0.165 | 0.195 | 0.401 | 0.292 | 0.256 | 0.57 | -0.0562 | -0.0298 |
| Cn1cnc2c(F)c(Nc3ccc(Br)cc3Cl)c(C(=O)NOCCO)cc21 [Selumetinib] + C=CCn1c(=O)c2cnc(Nc3ccc(N4CCN(C)CC4)cc3)nc2n1-c1cccc(C(C)(C)O)n1 [AZD1775] (first compound max 10 µM, partner max 1 µM) | 0.817 | 0.239 | 0.562 | 0.479 | 0.445 | 0.711 | 0.468 | 0.633 | 0.371 | 0.177 | 0.828 | 0.315 | 0.207 | 0.46 | 0.47 | 0.867 | 0.544 | 0.985 | 0.0086 | -0.0563 |
| CC(=O)c1c(C)c2cnc(Nc3ccc(N4CCNCC4)cn3)nc2n(C2CCCC2)c1=O [Palbociclib] + CC1(C)CCC(CN2CCN(c3ccc(C(=O)NS(=O)(=O)c4ccc(NCC5CCOCC5)c([N+](=O)[O-])c4)c(Oc4cnc5[nH]ccc5c4)c3)CC2)=C(c2ccc(Cl)cc2)C1 [Venetoclax] (first compound max 10 µM, 7x7, partner max 1 µM) | 0.125 | 0.0454 | 0.0808 | 0.242 | 0.121 | 0.131 | 0.279 | 0.57 | 0.222 | 0.127 | 0.849 | 0.105 | 0.545 | 0.279 | 0.114 | 0.159 | 0.129 | 0.688 | -0.0244 | -0.0554 |
| C=CCn1c(=O)c2cnc(Nc3ccc(N4CCN(C)CC4)cc3)nc2n1-c1cccc(C(C)(C)O)n1 [AZD1775] + O=C(c1cc(Cc2n[nH]c(=O)c3ccccc23)ccc1F)N1CCN(C(=O)C2CC2)CC1 [Olaparib] (first compound max 1 µM, partner max 10 µM) | 0.78 | 0.255 | 0.497 | 0.614 | 0.507 | 0.797 | 0.477 | 0.787 | 0.382 | 0.363 | 0.769 | 0.308 | 0.227 | 0.436 | 0.566 | 0.891 | 0.567 | 0.834 | 0.0141 | 0.0104 |
